Laboratory results published in PMC12261228 (ACS Pharmacology & Translational Science, 2025).
Entries after “also recorded” stand apart in the source; their conditions may differ. Read-outs that look alike come from different tables or passages of the source.

What was measured:
[1] = system: CEM-DNR; experiment: MTS cytotoxicity assay, 72 h; assay type: cell-based; conditions: Homo sapiens, read-out: IC50 CEM-DNR
[2] = system: BJ; experiment: MTS cytotoxicity assay, 72 h; assay type: cell-based; conditions: Homo sapiens, read-out: IC50 BJ
[3] = system: K562; experiment: MTS cytotoxicity assay, 72 h; assay type: cell-based; conditions: Homo sapiens, K562, 72 h, read-out: IC50 K562
[4] = system: HCT116; experiment: MTS cytotoxicity assay, 72 h; assay type: cell-based; conditions: Homo sapiens, HCT-116, 72 h, read-out: IC50 HCT116
[5] = system: MRC-5; experiment: MTS cytotoxicity assay, 72 h; assay type: cell-based; conditions: Homo sapiens, MRC5, 72 h, read-out: IC50 MRC-5
[6] = system: HCT116p53–/–; experiment: MTS cytotoxicity assay, 72 h; assay type: cell-based; conditions: read-out: IC50 HCT116p53–/–
[7] = system: HUVEC; experiment: MTS cytotoxicity assay, 72 h; assay type: cell-based; conditions: Homo sapiens, 3-day incubation, mean ± SD
[8] = system: CCRF-CEM; experiment: MTS cytotoxicity assay, 72 h; assay type: cell-based; conditions: Homo sapiens, CCRF-CEM, 72 h
[9] = system: U2OS; experiment: MTS cytotoxicity assay, 72 h; assay type: cell-based, human
[10] = system: microtubules in U2OS cells; experiment: Immunofluorescence of microtubule organization; assay type: cell-based, human; conditions: 15 h
Protocol: DMSO at appropriate dilution served as control.
Immunofluorescence microscopy on formaldehyde-fixed, Triton X-100 extracted cells (F/Tx) was performed as previously described. Extraction and fixation steps were carried out in a microtubule stabilizing buffer consisting of 0.1 M KMes, 2 mM EGTA, 2 mM MgCl2, 4% polyethylene glycol 6000, pH 6.9. Cells were fixed for 30 min in 3% formaldehyde before extraction for 4 min with 0.5% Triton X-100 at 37 °C. Mouse monoclonal antibody TU-01 (IgG1) directed to α-tubulin , in the form of hybridoma spent culture medium was diluted 1:10. The DyLight 549-conjugated antimouse antibody (Jackson Immunoresearch Laboratories, West Grove, PA, USA) was diluted 1:500. Samples were mounted in MOWIOL 4–88 (Calbiochem, San Diego, CA, USA) supplemented with 4,6-diamidino-2-phenylindole (DAPI; Sigma-Aldrich, St. Louis, MO, USA) and examined with an Olympus AX-70 Provis microscope (Olympus, Hamburg, Germany) equipped with a 60×/1.0 water objective.

[11] = system: panel of cell lines
[12] = system: K562-TAX; experiment: MTS cytotoxicity assay, 72 h; assay type: cell-based; conditions: read-out: IC50 K562-TAX
[13] = system: CCRF-CEM lymphoblasts; experiment: FACS analysis of cell cycle, apoptosis, mitosis and polyploidy; conditions: for Mitosis: phospho-Histone (Ser10); for Apoptosis: sub-G0/G1 DNA content, % of positive cells
[14] = system: A549; experiment: MTS cytotoxicity assay, 72 h; assay type: cell-based; conditions: Homo sapiens, Fig. S22
Protocol: Cell suspensions were prepared and diluted according to the particular cell type and the expected target cell density (500 – 4,000 cells/well). The cells (30 μL/well) were seeded to 384-well clear Corning plates by MultiDrop Combi (Thermo Fisher Scientific, USA). After 24 h the cells were treated with tested compounds as well as with vehicle (DMSO) and high controls (2.67 μM of Actinomycin D and 100 μM Mitomycin C) using contact-free acoustic liquid handler ECHO 555 (Labcyte, USA). Compounds were analyzed at a concentration range from 0.012 μM to 50 μM. Treated cells were incubated at 37 °C in a 5% CO2 atmosphere of a humidified incubator for 72 h. At the end of the incubation period, aliquots of the MTS (Promega) solution prepared according to manufacturer's instructions were added to cells (https://worldwide.promega.com/resources/protocols/technical-bulletins/0/celltiter-96-aqueous-nonradioactive-cell-proliferation-assay-protocol/). After 1 – 4 h of the incubation period, the optical density (OD) at 490 nm was measured on a multimode plate reader EnVision (PerkinElmer, USA). The experiments were performed in technical duplicates and at least three biological replicates. […] The assay quality was monitored by determining the Z′-factor for each 384-well plate. The resistance index (RI), representing the reduction in compound activity on resistant cell lines, was calculated as RI = (IC50 of resistant cell lines, CEM-DNR, K562-TAX)/(IC50 of nonresistant counterparts, CCRF-CEM, K562). Similarly, the selectivity index (SI), indicating preferential cytotoxicity toward tumor cell lines, was calculated as SI = (mean IC50 of nontumor cell lines, BJ and MRC5)/(mean IC50 of cancer cell lines without resistant variants, CCRF-CEM, K562, HCT116, HCT116p53–/–, U2OS).

[15] = read-out: IC50 CCRF-CEM, MTS assay, 3-day incubation, mean ± SD of 3 experiments
[16] = daunorubicin-resistant, MTS assay, 3-day incubation, mean ± SD
[17] = normal fibroblasts, MTS assay, 3-day incubation, mean ± SD
[18] = MTS assay, 3-day incubation, mean ± SD
[19] = MTS assay, 3-day incubation, mean ± SD of 3 experiments, read-out: IC50 CCRF-CEM
[20] = Homo sapiens, U2OS, 72 h, MTS assay, 3-day incubation, mean ± SD, read-out: IC50 U2OS
[21] = paclitaxel-resistant, MTS assay, 3-day incubation, mean ± SD

Row | SMILES | IC50 [2] [µM] | IC50 [3] [µM] | IC50 [4] [µM] | IC50 [5] [µM] | IC50 [6] [µM] | IC50 [7] [µM] | IC50 [8, 15] [µM] | effect on microtubules (in words) ([10]; 10 μM) | G0/G1 ([13]; 1×IC50, 24 h) [%] | G2/M ([13]; 1×IC50, 24 h) [%] | Polyploid cells ([13]; 1×IC50, 24 h) [%] | S ([13]; 1×IC50, 24 h) [%] | Mitosis ([13]; 1×IC50, 24 h) [%] | Apoptosis ([13]; 1×IC50, 24 h) [%] | G0/G1 ([13]; 5×IC50, 24 h) [%] | Polyploid cells ([13]; 5×IC50, 24 h) [%] | S ([13]; 5×IC50, 24 h) [%] | Mitosis ([13]; 5×IC50, 24 h) [%] | Apoptosis ([13]; 5×IC50, 24 h) [%] | IC50 [1, 16] [µM] | other results
1 | COc1cc2c(c(OC)c1OC)-c1ccc(OC)c(=O)cc1[C@@H](n1cc(CCCC3=C4C(C)=CC(C)=[N+]4[B-](F)(F)n4c(C)cc(C)c43)[n+](C)n1)CC2 [CB7] | > 50 | 0.77 ± 0.0224 | 1.51 ± 0.33 | > 50 | 1.43 ± 0.162 | 1.4 ± 0.104 | 0.84 ± 0.058 | microtubule remnants were detectable | 26.66 | 45.89 | 21.60 | 27.45 | 19.77 | 13.02 | 6.62 | 23.77 | 4.54 | 68.32 | 14.67 | – | IC50 [1]: 1.34 ± 0.229 µM; IC50 ([9]; Homo sapiens, U2OS, 72 h, read-out: IC50 U2OS, MTS assay, 3-day incubation, mean ± SD): < 2 µM; IC50 ([9]; read-out: IC50 U2OS, MTS assay, 3-day incubation, mean ± SD): 1.96 ± 0.096 µM; RI (resistance index) [11]: 1.22; SI (selectivity index) [11]: >38.40; IC50 [12]: 0.62 ± 0.084 µM; G2/M ([13]; 5×IC50, 24 h): 88.84%
2 | COc1cc2c(c(OC)c1OC)-c1ccc(OC)c(=O)cc1[C@@H](NC(=O)CCC1=C3C(C)=CC(C)=[N+]3[B-](F)(F)n3c(C)cc(C)c31)CC2 [CB1] | 8.35 ± 0.419 | 0.45 ± 0.054 | 0.5 ± 0.032 | 5.69 ± 0.639 | 0.58 ± 0.063 | 0.67 ± 0.033 | 0.4 ± 0.018 | completely disrupted microtubules | 36.69 | 38.6 | 17.25 | 24.71 | 7.96 | 5.32 | 50.26 | 19.14 | 1.72 | 17.85 | 11.73 | – | IC50 [1]: 2.07 ± 0.212 µM; RI (resistance index) [11]: 4.16; SI (selectivity index) [11]: 13.66; IC50 [12]: 1.47 ± 0.361 µM; G2/M ([13]; 5×IC50, 24 h): 48.02%
3 | COc1cc2c(c(OC)c1OC)-c1ccc(OC)c(=O)cc1[C@@H](n1cc(CCCC3=C4C(C)=CC(C)=[N+]4[B-](F)(F)n4c(C)cc(C)c43)nn1)CC2 [CB4] | > 50 | 0.088 ± 0.013 | 0.1 ± 0.004 | > 50 | 0.12 ± 0.012 | < 0.0122 | 0.02 ± 0.0009 | microtubule remnants were detectable; also recorded: perinuclear bundles were observed; also recorded: disruption of microtubule organization and generation of perinuclear microtubule bundles | 41.19 | 27.75 | 19.29 | 31.06 | 2.76 | 3.04 | 5.49 | 23.72 | 1.83 | 64.43 | 12.24 | – | cytotoxic activity across the cell line panel (in words) [11]: changed only slightly
4 | COc1cc(C2=C3C(C)=CC(C)=[N+]3[B-](F)(F)n3c(C)cc(C)c32)ccc1O [B7] | – | – | – | – | – | – | – | – | – | – | – | – | – | – | – | – | – | – | – | 39.9 | IC50 [14]: > 50 µM; IC50 [2, 17]: > 50 µM; IC50 [3, 18]: > 50 µM; IC50 [4, 18]: > 50 µM; IC50 [5, 17]: > 50 µM; IC50 [6, 18]: > 50 µM; IC50 [8, 19]: > 50 µM; IC50 [9, 20]: > 50 µM; IC50 [12, 21]: > 50 µM
5 | CNCCCCC1=C2C(C)=CC(C)=[N+]2[B-](F)(F)n2c(C)cc(C)c21 [B5] | – | – | – | – | – | – | – | – | – | – | – | – | – | – | – | – | – | – | – | 36.3 | IC50 [14]: > 50 µM; IC50 [2, 17]: > 50 µM; IC50 [3, 18]: > 50 µM; IC50 [4, 18]: > 50 µM; IC50 [5, 17]: > 50 µM; IC50 [6, 18]: > 50 µM; IC50 [8, 19]: 27.8 µM; IC50 [9, 20]: > 50 µM; IC50 [12, 21]: 35.8 µM
6 | CC1=CC(C)=[N+]2C1=C(CCCCN)c1c(C)cc(C)n1[B-]2(F)F [B4] | – | – | – | – | – | – | – | – | – | – | – | – | – | – | – | – | – | – | – | > 50 | IC50 [14]: > 50 µM; IC50 [2, 17]: > 50 µM; IC50 [3, 18]: > 50 µM; IC50 [4, 18]: > 50 µM; IC50 [5, 17]: > 50 µM; IC50 [6, 18]: > 50 µM; IC50 [8, 19]: 32.9 µM; IC50 [9, 20]: > 50 µM; IC50 [12, 21]: > 50 µM
7 | C#CCCCCCCCCC1=C2C(C)=CC(C)=[N+]2[B-](F)(F)n2c(C)cc(C)c21 [B10] | – | – | – | – | – | – | – | – | – | – | – | – | – | – | – | – | – | – | – | > 50 | IC50 [14]: > 50 µM; IC50 [2, 17]: > 50 µM; IC50 [3, 18]: > 50 µM; IC50 [4, 18]: > 50 µM; IC50 [5, 17]: > 50 µM; IC50 [6, 18]: > 50 µM; IC50 [8, 19]: > 50 µM; IC50 [9, 20]: > 50 µM; IC50 [12, 21]: > 50 µM
8 | COc1cc2c(c(OC)c1OC)-c1ccc(OC)c(=O)cc1[C@@H](NC(C)=O)CC2 [Col, colchicine, reference compound] | – | – | – | – | – | – | – | – | 2.61 | 80.55 | 14.45 | 16.84 | 58.35 | 13.67 | 4.73 | 14.73 | 24.71 | 64.48 | 11.47 | – | effect on microtubules (in words) ([10]; 0.1 μM): effectively depolymerized microtubules; G2/M ([13]; 5×IC50, 24 h): 70.57%; polyploidization in CCRF-CEM cells (in words) ([13]; both 1 × IC50 and 5 × IC50): induced polyploidization
9 | COc1cc(C2=C3C(C)=CC(C)=[N+]3[B-](F)(F)n3c(C)cc(C)c32)ccc1OCc1cn([C@H]2CCc3cc(OC)c(OC)c(OC)c3-c3ccc(OC)c(=O)cc32)nn1 [CB6] | > 50 | 0.026 ± 0.001 | 0.43 ± 0.0325 | > 50 | 0.38 ± 0.057 | < 0.0122 | 0.14 ± 0.01 | microtubule remnants were detectable | 12.32 | 55.58 | 23.13 | 32.1 | 29.41 | 7.55 | 3.72 | 24.76 | 1.88 | 61.11 | 14.32 | – | cytotoxic activity across the cell line panel (in words) [11]: changed only slightly
